The values that follow come from patent US20220177538A1, “CO-AGONISTS AT GLP-1 AND GIP RECEPTORS SUITABLE FOR ORAL DELIVERY” (Novo Nordisk A/S, priority 2020, published 2022).

The target in one test is human GLP-1 receptor (Homo sapiens, UniProt P43220). Description: In vitro functional potency, CRE luciferase reporter, whole BHK cells (hGLP-1R). It is filed as cell-based. Details: expressed in transfected cells; host or cells: BHK (parent line BHKTS13), clone BHK CRE luc2P hGLP-1R. To be noted: BHK CRE luc2P hGLP-1R cells. In outline: (§1)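 Potencies are replicate means (n≥2) from non-linear log(agonist) vs response fits of CRE-driven luminescence. Cells were overnight-plated BHK CRE luc2P lines transfected with human GIPR or GLP-1R, 5000/well.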
Chain of human GLP-1 receptor (P43220 24-463): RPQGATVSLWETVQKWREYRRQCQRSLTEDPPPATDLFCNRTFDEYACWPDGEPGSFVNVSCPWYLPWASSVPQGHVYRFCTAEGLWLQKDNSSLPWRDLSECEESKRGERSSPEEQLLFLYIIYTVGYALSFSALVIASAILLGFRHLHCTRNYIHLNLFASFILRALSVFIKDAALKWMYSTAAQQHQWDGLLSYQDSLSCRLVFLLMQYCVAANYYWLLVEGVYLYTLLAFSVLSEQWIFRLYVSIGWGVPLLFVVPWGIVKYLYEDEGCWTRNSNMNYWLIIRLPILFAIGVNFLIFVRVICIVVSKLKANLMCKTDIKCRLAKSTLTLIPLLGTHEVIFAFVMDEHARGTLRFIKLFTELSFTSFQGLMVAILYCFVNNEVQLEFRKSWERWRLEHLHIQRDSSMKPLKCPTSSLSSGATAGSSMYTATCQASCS

A further test addresses T1, human GIP receptor (Homo sapiens, UniProt P48546).
T1 construct: expressed in transfected cells; host or cells: BHK (parent line BHKTS13), clone BHK CRE luc2P hGIPR
T1 sequence (P48546 22-466): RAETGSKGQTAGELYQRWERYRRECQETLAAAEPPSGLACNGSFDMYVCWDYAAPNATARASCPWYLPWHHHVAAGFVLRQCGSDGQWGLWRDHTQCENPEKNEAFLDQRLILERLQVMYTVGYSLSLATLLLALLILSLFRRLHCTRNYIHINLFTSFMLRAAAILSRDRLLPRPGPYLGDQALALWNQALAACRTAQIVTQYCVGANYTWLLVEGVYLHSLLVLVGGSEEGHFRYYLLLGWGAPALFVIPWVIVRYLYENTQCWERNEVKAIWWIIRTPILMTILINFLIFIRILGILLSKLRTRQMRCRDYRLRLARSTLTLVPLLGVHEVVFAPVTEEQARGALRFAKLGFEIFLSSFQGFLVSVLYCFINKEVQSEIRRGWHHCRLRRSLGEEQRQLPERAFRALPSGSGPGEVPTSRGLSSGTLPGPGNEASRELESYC
Description: In vitro functional potency, CRE luciferase reporter, whole BHK cells (hGIPR). The class given is cell-based. To be noted: BHK CRE luc2P hGIPR cells. The method, boiled down: as §1

The mark [1] stands for this setting: 0% HSA, read-out: hGLP-1R, CRE Luc 0% HSA EC50.
[2] abbreviates: hGLP-1R, CRE Luc 1% HSA EC50, 1% HSA.
[3] abbreviates: 0% HSA, read-out: hGIPR, CRE Luc 0% HSA EC50.
Setting [4] is: hGIPR, CRE Luc 1% HSA EC50, 1% HSA.

Structures are written as SMILES. Where two headings read alike, the source gives them in different places. Starred links: 1 amine or outer side, 2 acyl side, 3 side chain; linkers in the order of their positions; H or OH if unused. Non-standard residues stand in square brackets, D forms with d. Residues, ends and D or L forms follow the SMILES beside them. Groups on a side chain read outwards from the residue. *: point of attachment. C20 diacid = O=C(O)CCCCCCCCCCCCCCCCCCC(=O)*; C18 diacid = O=C(O)CCCCCCCCCCCCCCCCC(=O)*; γGlu = O=C(O)[C@H](CCC(=O)[*:2])N[*:1]; εLys = N[C@@H](CCCCN[*:1])C(=O)[*:2]; AEEA = NCCOCCOCC(=O)O; Aib = CC(C)(N)C(=O)O

Take `CC[C@H](C)[C@H](NC(=O)[C@H](Cc1ccccc1)NC(=O)[C@H](CCC(=O)O)NC(=O)[C@H](CCCNC(=N)N)NC(=O)[C@H](C)NC(=O)[C@H](C)NC(=O)[C@H](CCC(N)=O)NC(=O)[C@H](CCCCNC(=O)COCCOCCNC(=O)COCCOCCNC(=O)CC[C@H](NC(=O)CCCCCCCCCCCCCCCCC(=O)O)C(=O)O)NC(=O)[C@H](CCC(=O)O)NC(=O)[C@H](CC(C)C)NC(=O)[C@@H](NC(=O)[C@@H](NC(=O)[C@H](CO)NC(=O)[C@H](Cc1ccc(O)cc1)NC(=O)[C@H](CC(=O)O)NC(=O)[C@H](CO)NC(=O)[C@@H](NC(=O)[C@H](Cc1ccccc1)NC(=O)[C@@H](NC(=O)CNC(=O)[C@H](CCC(=O)O)NC(=O)C(C)(C)NC(=O)[C@@H](N)Cc1ccc(O)cc1)[C@@H](C)O)[C@@H](C)O)[C@@H](C)CC)[C@@H](C)CC)C(=O)N[C@@H](CC(N)=O)C(=O)N[C@@H](Cc1c[nH]c2ccccc12)C(=O)N[C@@H](CC(C)C)C(=O)N[C@@H](CC(C)C)C(=O)N[C@@H](C)C(=O)NCC(=O)NCC(=O)N1CCC[C@H]1C(=O)N[C@@H](CO)C(=O)N[C@@H](CO)C(=O)NCC(=O)N[C@@H](C)C(=O)N1CCC[C@H]1C(=O)N1CCC[C@H]1C(=O)N1CCC[C@H]1C(=O)N[C@@H](CO)C(=O)O` [Compound 36] (H-Y[Aib]EGTFTSDYSIILEK([AEEA-AEEA-γGlu-C18 diacid])QAAREFINWLLAGGPSSGAPPPS-OH): the half-maximal effective concentration (EC50) on human GLP-1 receptor (setting [1]) is 0.0047 nM; at human GLP-1 receptor (setting [2]), 0.414 nM; on human GIP receptor (setting [3]), 0.0055 nM; on human GIP receptor (setting [4]) it was 0.356 nM.

Turning to `CC[C@H](C)[C@H](NC(=O)[C@H](Cc1ccccc1)NC(=O)[C@H](CCC(=O)O)NC(=O)[C@H](CCCNC(=N)N)NC(=O)[C@H](C)NC(=O)[C@H](C)NC(=O)[C@H](CCC(N)=O)NC(=O)[C@H](CCCCNC(=O)[C@@H](N)CCCCNC(=O)[C@@H](N)CCCCNC(=O)CC[C@H](NC(=O)CCCCCCCCCCCCCCCCC(=O)O)C(=O)O)NC(=O)[C@H](CCC(=O)O)NC(=O)[C@H](CC(C)C)NC(=O)[C@H](CC(C)C)NC(=O)[C@@H](NC(=O)[C@H](CO)NC(=O)[C@H](Cc1ccc(O)cc1)NC(=O)[C@H](CC(=O)O)NC(=O)[C@H](CO)NC(=O)[C@@H](NC(=O)[C@H](Cc1ccccc1)NC(=O)[C@@H](NC(=O)CNC(=O)[C@H](CCC(=O)O)NC(=O)C(C)(C)NC(=O)[C@@H](N)Cc1ccc(O)cc1)[C@@H](C)O)[C@@H](C)O)[C@@H](C)CC)C(=O)N[C@@H](CC(N)=O)C(=O)N[C@@H](Cc1c[nH]c2ccccc12)C(=O)N[C@@H](CC(C)C)C(=O)N[C@@H](CC(C)C)C(=O)N[C@@H](C)C(=O)NCC(=O)NCC(=O)N1CCC[C@H]1C(=O)O` [Compound 19] (H-Y[Aib]EGTFTSDYSILLEK([εLys-εLys-γGlu-C18 diacid])QAAREFINWLLAGGP-OH), the 50% effective concentration (EC50) at human GLP-1 receptor (setting [1]) was 0.0086 nM; at human GLP-1 receptor (setting [2]), 0.365 nM; on human GIP receptor (setting [3]) it was 0.0065 nM; on human GIP receptor (setting [4]) it was 0.275 nM.

As for `CC[C@H](C)[C@H](NC(=O)[C@H](Cc1ccccc1)NC(=O)[C@H](CCC(=O)O)NC(=O)[C@H](CCCNC(=N)N)NC(=O)[C@H](C)NC(=O)[C@H](C)NC(=O)[C@H](CCC(N)=O)NC(=O)[C@H](CCCCNC(=O)[C@@H](N)CCCCNC(=O)[C@@H](N)CCCCNC(=O)CC[C@H](NC(=O)CCCCCCCCCCCCCCCCC(=O)O)C(=O)O)NC(=O)[C@H](CCC(=O)O)NC(=O)[C@H](CC(C)C)NC(=O)[C@H](CC(C)C)NC(=O)[C@@H](NC(=O)[C@H](CO)NC(=O)[C@H](Cc1ccc(O)cc1)NC(=O)[C@H](CC(=O)O)NC(=O)[C@H](CO)NC(=O)[C@@H](NC(=O)[C@@H](NC(=O)[C@@H](NC(=O)CNC(=O)[C@H](CCC(=O)O)NC(=O)C(C)(C)NC(=O)[C@@H](N)Cc1ccc(O)cc1)[C@@H](C)O)C(C)C)[C@@H](C)O)[C@@H](C)CC)C(=O)N[C@@H](CC(N)=O)C(=O)N[C@@H](Cc1c[nH]c2ccccc12)C(=O)N[C@@H](CC(C)C)C(=O)N[C@@H](CC(C)C)C(=O)N[C@@H](C)C(=O)NCC(=O)NCC(=O)N1CCC[C@H]1C(=O)N[C@@H](CO)C(=O)N[C@@H](CO)C(=O)NCC(=O)N[C@@H](C)C(=O)N1CCC[C@H]1C(=O)N1CCC[C@H]1C(=O)N1CCC[C@H]1C(=O)N[C@@H](CO)C(=O)O` [Compound 33] (H-Y[Aib]EGTVTSDYSILLEK([εLys-εLys-γGlu-C18 diacid])QAAREFINWLLAGGPSSGAPPPS-OH), the EC50 at human GLP-1 receptor (setting [1]) was determined as 0.0148 nM; at human GLP-1 receptor (setting [2]) it was 0.361 nM; at human GIP receptor (setting [3]) it was 0.0029 nM; on human GIP receptor (setting [4]) it was 0.103 nM.

For the compound `CC(C)C[C@H](NC(=O)[C@H](CC(C)C)NC(=O)[C@H](Cc1c[nH]c2ccccc12)NC(=O)[C@H](CC(N)=O)NC(=O)[C@@H](NC(=O)[C@H](Cc1ccccc1)NC(=O)[C@H](CCC(=O)O)NC(=O)[C@H](CCC(N)=O)NC(=O)[C@H](C)NC(=O)[C@H](C)NC(=O)[C@H](CCC(N)=O)NC(=O)[C@H](CCCCNC(=O)[C@@H](N)CCCCNC(=O)[C@@H](N)CCCCNC(=O)CC[C@H](NC(=O)CCCCCCCCCCCCCCCCCCC(=O)O)C(=O)O)NC(=O)[C@H](CCC(=O)O)NC(=O)[C@H](CC(C)C)NC(=O)[C@H](Cc1ccc(O)cc1)NC(=O)[C@H](Cc1ccc(O)cc1)NC(=O)[C@H](CO)NC(=O)[C@H](Cc1ccc(O)cc1)NC(=O)[C@H](CC(=O)O)NC(=O)[C@H](CO)NC(=O)[C@@H](NC(=O)[C@H](Cc1ccccc1)NC(=O)[C@@H](NC(=O)CNC(=O)[C@H](CCC(=O)O)NC(=O)C(C)(C)NC(=O)[C@@H](N)Cc1ccc(O)cc1)[C@@H](C)O)[C@@H](C)O)C(C)C)C(=O)N[C@@H](C)C(=O)NCC(=O)NCC(=O)N1CCC[C@H]1C(=O)N[C@@H](CO)C(=O)N[C@@H](CO)C(=O)NCC(=O)N[C@@H](C)C(=O)N1CCC[C@H]1C(=O)N1CCC[C@H]1C(=O)N1CCC[C@H]1C(=O)N[C@@H](CO)C(N)=O` [Compound 2] (H-Y[Aib]EGTFTSDYSYYLEK([εLys-εLys-γGlu-C20 diacid])QAAQEFVNWLLAGGPSSGAPPPS-NH2), the EC50 on human GLP-1 receptor (setting [1]) came to 0.006 nM; on human GLP-1 receptor (setting [2]) it was 0.9 nM; at human GIP receptor (setting [3]), 0.0038 nM; at human GIP receptor (setting [4]) it was 0.275 nM.

For `CC[C@H](C)[C@H](NC(=O)[C@H](CO)NC(=O)[C@H](Cc1ccc(O)cc1)NC(=O)[C@H](CC(=O)O)NC(=O)[C@H](CO)NC(=O)[C@@H](NC(=O)[C@H](Cc1ccccc1)NC(=O)[C@@H](NC(=O)CNC(=O)[C@H](CCC(=O)O)NC(=O)C(C)(C)NC(=O)[C@@H](N)Cc1ccc(O)cc1)[C@@H](C)O)[C@@H](C)O)C(=O)N[C@@H](Cc1ccc(O)cc1)C(=O)N[C@@H](CC(C)C)C(=O)N[C@@H](CCC(=O)O)C(=O)N[C@@H](CCCCNC(=O)[C@@H](N)CCCCNC(=O)[C@@H](N)CCCCNC(=O)CC[C@H](NC(=O)CCCCCCCCCCCCCCCCCCC(=O)O)C(=O)O)C(=O)N[C@@H](CCC(N)=O)C(=O)N[C@@H](C)C(=O)N[C@@H](C)C(=O)N[C@@H](CCC(N)=O)C(=O)N[C@@H](CCC(=O)O)C(=O)N[C@@H](Cc1ccccc1)C(=O)N[C@H](C(=O)N[C@@H](CC(N)=O)C(=O)N[C@@H](Cc1c[nH]c2ccccc12)C(=O)N[C@@H](CC(C)C)C(=O)N[C@@H](CC(C)C)C(=O)N[C@@H](C)C(=O)NCC(=O)NCC(=O)N1CCC[C@H]1C(=O)N[C@@H](CO)C(=O)N[C@@H](CO)C(=O)NCC(=O)N[C@@H](C)C(=O)N1CCC[C@H]1C(=O)N1CCC[C@H]1C(=O)N1CCC[C@H]1C(=O)N[C@@H](CO)C(N)=O)C(C)C` [Compound 1] (H-Y[Aib]EGTFTSDYSIYLEK([εLys-εLys-γGlu-C20 diacid])QAAQEFVNWLLAGGPSSGAPPPS-NH2), the concentration for a half-maximal effect (EC50) turned out to be 0.0078 nM on human GLP-1 receptor (setting [1]), 1.66 nM on human GLP-1 receptor (setting [2]), 0.0028 nM at human GIP receptor (setting [3]) and 0.173 nM on human GIP receptor (setting [4]).
